Test results from patent US10681909B2, “Herbicidal triazoles” (FMC Corporation, priority 2014, dated 2020).

Columns and labels:
barnyardgrass [1] = assay: Test C postemergence; assay type: in vivo, Echinochloa crus-galli
Method in brief: (§1)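 Test chemicals in a non-phytotoxic solvent mixture with surfactant were applied to pots of plants at 2 to 18 cm (1- to 4-leaf stage) for postemergence treatment, grown in a peat-based medium with vermiculite, starter nutrients and dolomitic limestone. Preemergence treatment was to seeds freshly planted in loam soil mixed with sand.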

blackgrass = assay: Test C postemergence; assay type: in vivo, Alopecurus myosuroides
Method in brief: as §1

pigweed = assay: Test A preemergence; assay type: in vivo, Amaranthus retroflexus; conditions: 0 to 100 scale (0 no effect, 100 complete control)
Method in brief: (§2)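 Herbicidal response was scored on plants treated pre- or postemergence with surfactant-containing, non-phytotoxic solvent formulations. Preemergence meant a directed spray onto soil (loam–sand) holding sown seed; postemergence plants were at one to two leaves.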

ryegrass, Italian = assay: Test C postemergence; assay type: in vivo, Lolium multiflorum
Method in brief: as §1

buckwheat, wild = assay: Test D preemergence; assay type: in vivo, Polygonum convolvulus; conditions: for Plant response rating: Buckwheat, Wild: scale 0 to 100
Method in brief: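 Both application timings used one formulation, a non-phytotoxic solvent mixture with surfactant. Preemergence pots held silt loam, and postemergence plants grew in peat moss/vermiculite medium to the 1- to 4-leaf stage. All plants were held under controlled conditions for 14 to 21 d before visual scoring relative to controls.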

wheat = assay: Test A postemergence; assay type: in vivo, Triticum aestivum; conditions: 0 to 100 scale (0 no effect, 100 complete control), approx. 10 d
Method in brief: as §2

soybean = assay: Test C postemergence; assay type: in vivo, Glycine max
Method in brief: as §1

ducksalad = assay: Test B flooded paddy test; assay type: in vivo, Heteranthera limosa; conditions: 250 g ai/ha, applied to paddy water at 2-leaf stage, visual rating after 13 to 15 d, scale 0 (no effect) to 100 (complete control)
Method in brief: (§3)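 Pots were flooded to 3 cm above the soil at treatment, and compounds were applied directly into the paddy water. That depth was held throughout. After 13 to 15 d in a greenhouse, plants were rated visually against untreated controls.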

galium = assay: Test C postemergence; assay type: in vivo, Galium aparine
Method in brief: as §1

corn = assay: Test C postemergence; assay type: in vivo, Zea mays
Method in brief: as §1

barnyardgrass [2] = assay: Test A preemergence; assay type: in vivo, Echinochloa crus-galli; conditions: 0 to 100 scale (0 no effect, 100 complete control)
Method in brief: as §2

waterhemp = assay: Test C postemergence; assay type: in vivo, Amaranthus rudis
Method in brief: as §1

sedge, umbrella = assay: Test B flooded paddy test; assay type: in vivo, Cyperus difformis; conditions: 250 g ai/ha, applied to paddy water at 2-leaf stage, visual rating after 13 to 15 d, scale 0 (no effect) to 100 (complete control)
Method in brief: as §3

foxtail, giant = assay: Test A postemergence; assay type: in vivo, Setaria faberii; conditions: 0 to 100 scale (0 no effect, 100 complete control), approx. 10 d
Method in brief: as §2

FC(F)(F)COc1nc(-c2ccc(Cl)cc2)nn1Cc1ccnc(C(F)(F)F)c1 [Compound 31]
Plant response rating (scale of 0 to 100 where 0 is no effect and 100 is complete control) (barnyardgrass [1]; 31 g ai/ha): 35
Plant response rating (scale of 0 to 100 where 0 is no effect and 100 is complete control) (barnyardgrass [1]; 62 g ai/ha): 35
Plant response rating (scale of 0 to 100 where 0 is no effect and 100 is complete control) (barnyardgrass [1]; 125 g ai/ha): 45
Plant response rating (scale of 0 to 100 where 0 is no effect and 100 is complete control) (barnyardgrass [1]; 250 g ai/ha): 75
Plant response rating (scale of 0 to 100 where 0 is no effect and 100 is complete control) (blackgrass; 31 g ai/ha): 35
Plant response rating (scale of 0 to 100 where 0 is no effect and 100 is complete control) (blackgrass; 62 g ai/ha): 50
Plant response rating (scale of 0 to 100 where 0 is no effect and 100 is complete control) (blackgrass; 125 g ai/ha): 60
Plant response rating (scale of 0 to 100 where 0 is no effect and 100 is complete control) (blackgrass; 250 g ai/ha): 80
Plant response rating, Pigweed (pigweed; 125 g ai/ha): 100
Plant response rating, Pigweed (pigweed; 500 g ai/ha, approx. 10 d): 100
Plant response rating (scale of 0 to 100 where 0 is no effect and 100 is complete control) (ryegrass, Italian; 31 g ai/ha): 20
Plant response rating (scale of 0 to 100 where 0 is no effect and 100 is complete control) (ryegrass, Italian; 62 g ai/ha): 30
Plant response rating (scale of 0 to 100 where 0 is no effect and 100 is complete control) (ryegrass, Italian; 125 g ai/ha): 40
Plant response rating (scale of 0 to 100 where 0 is no effect and 100 is complete control) (ryegrass, Italian; 250 g ai/ha): 65
Plant response rating (0 to 100), Buckwheat, Wild (buckwheat, wild; 16 g ai/ha, 0 is no effect, 100 is complete control): 65
Plant response rating: Buckwheat, Wild (buckwheat, wild; 31 g ai/ha): 75
Plant response rating: Buckwheat, Wild (buckwheat, wild; 62 g ai/ha): 75
Plant response rating: Buckwheat, Wild (buckwheat, wild; 125 g ai/ha): 75
Plant response rating, Wheat (wheat; 125 g ai/ha): 30
Plant response rating, Wheat (wheat; 500 g ai/ha): 40
Plant response rating (scale of 0 to 100 where 0 is no effect and 100 is complete control) (soybean; 31 g ai/ha): 40
Plant response rating (scale of 0 to 100 where 0 is no effect and 100 is complete control) (soybean; 62 g ai/ha): 65
Plant response rating (scale of 0 to 100 where 0 is no effect and 100 is complete control) (soybean; 125 g ai/ha): 35
Plant response rating (scale of 0 to 100 where 0 is no effect and 100 is complete control) (soybean; 250 g ai/ha): 65
Plant response rating, Ducksalad, Flood (ducksalad): 70
Plant response rating (scale of 0 to 100 where 0 is no effect and 100 is complete control) (galium; 31 g ai/ha): 80
Plant response rating (scale of 0 to 100 where 0 is no effect and 100 is complete control) (galium; 62 g ai/ha): 80
Plant response rating (scale of 0 to 100 where 0 is no effect and 100 is complete control) (galium; 125 g ai/ha): 80
Plant response rating (scale of 0 to 100 where 0 is no effect and 100 is complete control) (galium; 250 g ai/ha): 80
Plant response rating (scale of 0 to 100 where 0 is no effect and 100 is complete control) (corn; 31 g ai/ha): 40
Plant response rating (scale of 0 to 100 where 0 is no effect and 100 is complete control) (corn; 62 g ai/ha): 20
Plant response rating (scale of 0 to 100 where 0 is no effect and 100 is complete control) (corn; 125 g ai/ha): 20
Plant response rating (scale of 0 to 100 where 0 is no effect and 100 is complete control) (corn; 250 g ai/ha): 30
Plant response rating, Barnyardgrass (barnyardgrass [2]; 125 g ai/ha): 90
Plant response rating, Barnyardgrass (barnyardgrass [2]; 500 g ai/ha, approx. 10 d): 90
Plant response rating (scale of 0 to 100 where 0 is no effect and 100 is complete control) (waterhemp; 31 g ai/ha): 95
Plant response rating (scale of 0 to 100 where 0 is no effect and 100 is complete control) (waterhemp; 62 g ai/ha): 98
Plant response rating (scale of 0 to 100 where 0 is no effect and 100 is complete control) (waterhemp; 125 g ai/ha): 100
Plant response rating (scale of 0 to 100 where 0 is no effect and 100 is complete control) (waterhemp; 250 g ai/ha): 98
Plant response rating, Sedge, Umbrella, Flood (sedge, umbrella): 100
Plant response rating, Foxtail, Giant (foxtail, giant; 125 g ai/ha): 80
Plant response rating, Foxtail, Giant (foxtail, giant; 500 g ai/ha): 90
